Test system: tyrosinase de champignons
Assay: in vitro tyrosinase activity inhibition test (dopachrome formation followed at 475 nm)
Assay type: biochemical
Details: lowering of maximal dopachrome formed (OD 475 nm at plateau) vs no inhibitor; inhibitor at 50 % molaire relative to tyrosine; pH 6,5; 25°C
Source text: Certains des composés de formule générale (I) ont été étudiés comparativement à l'hydroquinone à quantité molaire équivalente dans le test d'inhibition in vitro de l'activité de la tyrosinase.
Selon ce test on suit par spectrométrie visible à 475 nm la quantité de dopachrome formée au cours de la chaîne de réactions de transformation de la tyrosine en mélanines. Ces réactions sont catalysées in vitro par la tyrosinase de champignons, en présence d'un co-substrat réducteur (par exemple la L-dopa en petite quantité) pour initier la réaction d'hydroxylation de la L-tyrosine en L-dopa, laquelle est ensuite oxydée catalytiquement en dopaquinone puis en dopachrome, produit intermédiaire avant les réactions d'oxydation non enzymatiques aboutissant à la formation des mélanines.
On mesure donc la concentration en dopachrome formé au cours du temps en présence et en absence de l'inhibiteur.
Les concentrations en inhibiteurs sont fixées à 50 % molaire par rapport à la concentration en tyrosine dans le milieu réactionnel.
On exprime l'effet d'inhibition par l'abaissement de la quantité maximale de dopachrome formée (valeur de densité optique à 475 nm lue au plateau de la courbe) par rapport à la quantité obtenue en l'absence d'inhibiteur.
• A - Tampon phosphate 0,1 M pH = 6,5 (Tween 20 à 1 %) • B - Solution mère de L-tyrosine à 2.10^-3 M dans A • C - Solution mère de L-dopa à 10^-4 M dans A • D - Solution mère de tyrosinase de champignons à 2.400 unités/ml dans A • E - Solution mère de l'inhibiteur à 10^-2 M dans A (les solutions C et D sont à préparer le jour même)
• cuve de référence : 3 ml de A • cuve d'essai : 1 ml de B 0,1 ml de C 1,85ml de A + E • homogénéiser et équilibrer à 25°C • ajouter 0,05 ml de D • mélanger rapidement et observer la cinétique par la mesure de l'absorbance à 475 nm en fonction du temps.

Oc1ccc2c(O)cccc2c1 [[drawing] r3]
% change in maximal dopachrome formed vs no inhibitor: -47%

Oc1ccc2cc(O)ccc2c1 [[drawing] r4]
% change in maximal dopachrome formed vs no inhibitor: -91%

Oc1ccc(O)cc1 [hydroquinone, reference compound]
% change in maximal dopachrome formed vs no inhibitor: -33%

From EP0623340B1, “Use of hydroxy or dihydroxynaphthalene in the preparation of a cosmetic or dermatological composition for skin whitening” (L'OREAL, priority 1993, dated 1994)
